Reference: patent publication US10428082B2, “Triazole derivatives of melampomagnolide B and methods of use thereof” (BioVentures, LLC, priority 2016, dated 2019)

Experiments:
Assay in all cases: NCI 60 growth inhibition
Type in all cases: cell-based, human
[1] = system: CCRF-CEM; details: Leukemia
[2] = system: HCC-2998; details: HCC-2998, Colon Cancer
[3] = system: HCT-116; details: HCT-116, Colon Cancer
[4] = system: HCT-15; details: HCT-15, Colon Cancer
[5] = system: KM12; details: KM12, Colon Cancer
[6] = system: LOX IMVI; details: Melanoma
[7] = system: MALME-3M; details: Melanoma
[8] = system: MDA-MB-468; details: MDA-MB-468, Breast Cancer
[9] = system: MOLT-4; details: MOLT-4, Leukemia
[10] = system: NCI-H322M; details: Non-Small Cell Lung Cancer
[11] = system: NCI/ADR-RES; details: Ovarian Cancer
[12] = system: OVCAR-5; details: OVCAR-5, Ovarian Cancer
[13] = system: OVCAR-8; details: OVCAR-8, Ovarian Cancer
[14] = system: PC-3; details: PC-3, Prostate Cancer
[15] = system: SF-268; details: SF-268, CNS Cancer
[16] = system: SF-539; details: SF-539, CNS Cancer
[17] = system: SK-MEL-2; details: SK-MEL-2, Melanoma
[18] = system: SK-MEL-5; details: SK-MEL-5, Melanoma
[19] = system: SN12C; details: Renal Cancer
[20] = system: SNB-19; details: SNB-19, CNS Cancer
[21] = system: SNB-75; details: SNB-75, CNS Cancer
[22] = system: SR; details: Leukemia
[23] = system: SW-620; details: SW-620, Colon Cancer
[24] = system: TK-10; details: TK-10, Renal Cancer
[25] = system: UACC-257; details: UACC-257, Melanoma, Table 2

Work on `C=C1C(=O)O[C@H]2[C@H]1CC/C(Cn1cc(CCC)nn1)=C\CC[C@@]1(C)O[C@@H]21` [JVM 4-16, (1aR,7aS,10aS,10bS,E)-1a-Methyl-8-methylene-5((4-propyl-1H-1,2,3-triazol-1-yl)methyl)-2,3,6,7,7a,8,10a,10b-octahydrooxireno[2′,3′:9,10]cyclodeca[1,2-b]furan-9(1aH)-one] yielded a GI50 ([1]; Homo sapiens, Table 2) of 3000 nM, a GI50 ([2]; Homo sapiens, Table 2) of 15100 nM and a GI50 ([3]; Homo sapiens, Table 2) of 3980 nM. For the same compound, the GI50 ([4]; Homo sapiens, Table 2) was 2900 nM, the GI50 ([5]; Homo sapiens, Table 2) was 17600 nM and the GI50 ([6]; Homo sapiens, Table 2) was 3910 nM. The GI50 ([7]; Homo sapiens, Table 2) was 4700 nM, the GI50 ([8]; Homo sapiens, Table 2) was 3650 nM and the GI50 ([9]; Homo sapiens, Table 2) was 5540 nM. The GI50 ([10]; Homo sapiens, Table 2) was 21500 nM, the GI50 ([11]; Homo sapiens, Table 2) was 15200 nM and the GI50 ([12]; Homo sapiens, Table 2) was 14100 nM. It also gave a GI50 ([13]; Homo sapiens, Table 2) of 13500 nM, a GI50 ([14]; Homo sapiens, Table 2) of 14900 nM and a GI50 ([15]; Homo sapiens, Table 2) of 13700 nM. The GI50 ([16]; Homo sapiens, Table 2) was 8870 nM, the GI50 ([17]; Homo sapiens, Table 2) was 16300 nM and the GI50 ([18]; Homo sapiens, Table 2) was 15300 nM. The GI50 ([19]; Homo sapiens, Table 2) was 12100 nM, the GI50 ([20]; Homo sapiens, Table 2) was 18800 nM and the GI50 ([21]; Homo sapiens, Table 2) was 18500 nM. It also gave a GI50 ([22]; Homo sapiens, Table 2) of 2880 nM, a GI50 ([23]; Homo sapiens, Table 2) of 4230 nM and a GI50 ([24]; Homo sapiens, Table 2) of 3860 nM.

`C=C1C(=O)O[C@H]2[C@H]1CC/C(Cn1cc(-c3ccc(N)cc3)nn1)=C\CC[C@@]1(C)O[C@@H]21` [JVM 4-58] was tested, and the GI50 ([1]; Table 3) was 2000 nM, the GI50 ([2]; Table 3) was 3490 nM and the GI50 ([3]; Table 3) was 1550 nM. It also gave a GI50 ([4]; Table 3) of 1420 nM, a GI50 ([5]; Table 3) of 11400 nM and a GI50 ([6]; Table 3) of 1510 nM. The GI50 ([7]; Table 3) was 2180 nM, the GI50 ([8]; Table 3) was 1770 nM and the GI50 ([9]; Table 3) was 2870 nM. The GI50 ([10]; Table 3) was 12600 nM, the GI50 ([11]; Table 3) was 14500 nM and the GI50 ([12]; Table 3) was 6430 nM. It also gave a GI50 ([13]; Table 3) of 3040 nM, a GI50 ([14]; Table 3) of 10100 nM and a GI50 ([15]; Table 3) of 3700 nM. It also gave a GI50 ([16]; Table 3) of 2770 nM, a GI50 ([17]; Table 3) of 10600 nM and a GI50 ([18]; Table 3) of 3470 nM. The GI50 ([19]; Table 3) was 3480 nM, the GI50 ([20]; Table 3) was 12700 nM and the GI50 ([21]; Table 3) was 4980 nM. It also gave a GI50 ([22]; Table 3) of 700 nM, a GI50 ([23]; Table 3) of 2160 nM and a GI50 ([24]; Table 3) of 2250 nM.

`C=C1C(=O)O[C@H]2[C@H]1CC/C(Cn1cc(-c3cc(C)c(C)cc3C)nn1)=C\CC[C@@]1(C)O[C@@H]21` [JVM 4-50] showed a GI50 ([1]; Table 2) of 450 nM, a GI50 ([2]; Table 2) of 1720 nM and a GI50 ([3]; Table 2) of 330 nM. The GI50 ([4]; Table 2) was 200 nM, the GI50 ([5]; Table 2) was 2310 nM and the GI50 ([6]; Table 2) was 720 nM. For the same compound, the GI50 ([7]; Table 2) was 1430 nM, the GI50 ([8]; Table 2) was 530 nM and the GI50 ([9]; Table 2) was 2380 nM. For the same compound, the GI50 ([10]; Table 2) was 11100 nM, the GI50 ([11]; Table 2) was 2510 nM and the GI50 ([12]; Table 2) was 1740 nM. The GI50 ([13]; Table 2) was 920 nM, the GI50 ([14]; Table 2) was 1470 nM and the GI50 ([15]; Table 2) was 1520 nM. It also gave a GI50 ([16]; Table 2) of 1160 nM, a GI50 ([17]; Table 2) of 1750 nM and a GI50 ([18]; Table 2) of 1660 nM. For the same compound, the GI50 ([19]; Table 2) was 1490 nM, the GI50 ([20]; Table 2) was 3900 nM and the GI50 ([21]; Table 2) was 520 nM. It also gave a GI50 ([22]; Table 2) of 1260 nM, a GI50 ([23]; Table 2) of 420 nM and a GI50 ([24]; Table 2) of 1460 nM. The GI50 [25] was 1290 nM.
